This is an account of results in patent US10413559B2, “Method for treating demyelinating disease” (OCHANOMIZU UNIVERSITY, priority 2013, dated 2019).

For assay [1], the system named is demyelination model mice (0.2% cuprizone). Nature of the assay: Myelin level by Black Gold staining in cuprizone demyelination model mice (Example 1). The class given is in vivo, C57BL/6 mice. The settings on record: intraperitoneal 40 μg/200 μl saline/day for 5 weeks, FIG. 2. The method, then:
10-week-old male C57BL/6 mice were fed with a mash feed containing 0.2% cuprizone for five weeks until the most significant demyelination occurred, so as to produce demyelination model mice. cPA and carba-cPA (cPA) powders were each dissolved in a saline, and the obtained solutions were each administered intraperitoneally at a dose of 40 μg/200 μl saline/day to the mice every day for 5 weeks. On the other hand, to negative control mice, a saline (200 μl/day) was intraperitoneally administered in the same manner as described above. The mice, to which the test compound had been administered, were subjected to perfusion fixation with 4% paraformaldehyde, and sections to be used for frozen tissue staining (30 μm) were then prepared in a cryostat (FIG. 1). The level of myelin in each mouse was measured by Black Gold staining, and the demyelination level was then measured based on the stained level (FIG. 2).

Assay [2] concerns demyelination model mice (0.2% cuprizone), corpus callosum. In words: Histological staining (Black Gold II) of corpus callosum and evaluation of demyelination (Example 2). It is filed as in vivo, C57BL/6j mice. The note with it: intraperitoneal 1.6 mg/kg/day for 5 weeks, FIG. 3, FIG. 4. The text has this:
10-week-old male C57BL/6j mice (Tokyo Laboratory Animals Science Co., Ltd., Tokyo, Japan) were fed by the discretionary intake of a mash feed (CLEA Japan, Inc.) that contained 0.2% cuprizone (biscyclohexanone oxalyl hydrazone; Merck KGaA, Darmstadt, Germany) for 5 weeks until demyelination progressed most, so as to produce demyelination model mice involving demyelination caused by oligodendrocyte-specific cell death. To obtain tissues to be used for histological analysis, a mouse was subjected to perfusion fixation through the heart with 4% paraformaldehyde, and the resulting brain tissues were then excised from the mouse. Thereafter, the tissues were immobilized and infiltrated with 30% sucrose. Thereafter, a frozen tissue block was prepared and was then sliced in a cryostat. The cPA used in the experiment was the same cPA (16:0) as that used in Example 1, and the carba-cPA was 2 ccPA (16:1). The cPA and 2 ccPA were chemically purified (Biochimica et Biophysica Acta, Emi Nozaki 2011), and were then dissolved in a 0.9% saline. […] For the analysis of the level of myelin, using Image J 1.46r software, the stained level in the corpus callosum area was measured, and the demyelination level was then evaluated, while setting the control as 100%.

Assay [3] relates to demyelination model mice (0.2% cuprizone). In words: Test of motor function impairment using rotarod. The class given is in vivo, C57BL/6j mice. The note with it: intraperitoneal 1.6 mg/kg/day for 5 weeks, 28 rpm, 300 seconds, FIG. 9, FIG. 10. From the text: 10-week-old male C57BL/6j mice (Tokyo Laboratory Animals Science Co., Ltd., Tokyo, Japan) were fed by the discretionary intake of a mash feed (CLEA Japan, Inc.) that contained 0.2% cuprizone (biscyclohexanone oxalyl hydrazone; Merck KGaA, Darmstadt, Germany) for 5 weeks until demyelination progressed most, so as to produce demyelination model mice involving demyelination caused by oligodendrocyte-specific cell death. The cPA used in the experiment was the same cPA (16:0) as that used in Example 1, and the carba-cPA was 2 ccPA (16:1). The cPA and 2 ccPA were chemically purified (Biochimica et Biophysica Acta, Emi Nozaki 2011), and were then dissolved in a 0.9% saline. […] The locomotion time on the rod was evaluated by measuring the time required for the mice to fall from the rotating rod within a record time of 300 seconds. Moreover, even after the mice had fallen from the rod, they were forced to continue their activity immediately after the falling, so that a total number of the activities from falling from the rod to holding on to the rod for 300 seconds (a number of falls and flips) was measured and evaluated. The data of the test of motor function impairment were analyzed according to a non-parametric method using a Kruskal-Wallis test. All of other data were analyzed according to a one-way ANOVA method using a Newman-Keulis test. […]
For orientation: Falling from the rotarod earlier than controls is read as motor impairment.

Assay [4] has as its system GFAP, Iba1, PDGFRa, P2rx7, Nlrp3 gene expression in corpus callosum. In words: Genetic analysis using Q-PCR of corpus callosum tissues. The class given is in vivo, C57BL/6j mice. The settings on record: cuprizone mice; intraperitoneal 1.6 mg/kg/day for 5 weeks; FIG. 6-8. From the text: 10-week-old male C57BL/6j mice (Tokyo Laboratory Animals Science Co., Ltd., Tokyo, Japan) were fed by the discretionary intake of a mash feed (CLEA Japan, Inc.) that contained 0.2% cuprizone (biscyclohexanone oxalyl hydrazone; Merck KGaA, Darmstadt, Germany) for 5 weeks until demyelination progressed most, so as to produce demyelination model mice involving demyelination caused by oligodendrocyte-specific cell death.
To obtain mouse corpus callosum tissues to be used for genetic analysis, mouse brain was removed, and the corpus callosum tissues were then collected from the brain. […]
mRNA was extracted from the frozen corpus callosum tissues using ISOGEN (Nippon Gene Co., Ltd., Tokyo, Japan), was then dissolved in RNase free molecular grade water (Takara Bio Inc., Shiga, Japan), and was then preserved at −80° C. […] Gene expression was detected using 7900 Sequence Detection System (Applied Biosystems). […] The gene expression level was calculated by a ΔΔCT method. Data were analyzed by a relative quantification method. A relative change in the gene expression was analyzed, while setting the gene expression level in a control mouse at 100%.

The next assay deals with cultured animal cells. The settings on record: Murakami-Murofushi et al. 1992; cited from earlier work.
Another assay deals with T1, DNA polymerase α (Homo sapiens, UniProt P09884).
T1 sequence (P09884 1-1462): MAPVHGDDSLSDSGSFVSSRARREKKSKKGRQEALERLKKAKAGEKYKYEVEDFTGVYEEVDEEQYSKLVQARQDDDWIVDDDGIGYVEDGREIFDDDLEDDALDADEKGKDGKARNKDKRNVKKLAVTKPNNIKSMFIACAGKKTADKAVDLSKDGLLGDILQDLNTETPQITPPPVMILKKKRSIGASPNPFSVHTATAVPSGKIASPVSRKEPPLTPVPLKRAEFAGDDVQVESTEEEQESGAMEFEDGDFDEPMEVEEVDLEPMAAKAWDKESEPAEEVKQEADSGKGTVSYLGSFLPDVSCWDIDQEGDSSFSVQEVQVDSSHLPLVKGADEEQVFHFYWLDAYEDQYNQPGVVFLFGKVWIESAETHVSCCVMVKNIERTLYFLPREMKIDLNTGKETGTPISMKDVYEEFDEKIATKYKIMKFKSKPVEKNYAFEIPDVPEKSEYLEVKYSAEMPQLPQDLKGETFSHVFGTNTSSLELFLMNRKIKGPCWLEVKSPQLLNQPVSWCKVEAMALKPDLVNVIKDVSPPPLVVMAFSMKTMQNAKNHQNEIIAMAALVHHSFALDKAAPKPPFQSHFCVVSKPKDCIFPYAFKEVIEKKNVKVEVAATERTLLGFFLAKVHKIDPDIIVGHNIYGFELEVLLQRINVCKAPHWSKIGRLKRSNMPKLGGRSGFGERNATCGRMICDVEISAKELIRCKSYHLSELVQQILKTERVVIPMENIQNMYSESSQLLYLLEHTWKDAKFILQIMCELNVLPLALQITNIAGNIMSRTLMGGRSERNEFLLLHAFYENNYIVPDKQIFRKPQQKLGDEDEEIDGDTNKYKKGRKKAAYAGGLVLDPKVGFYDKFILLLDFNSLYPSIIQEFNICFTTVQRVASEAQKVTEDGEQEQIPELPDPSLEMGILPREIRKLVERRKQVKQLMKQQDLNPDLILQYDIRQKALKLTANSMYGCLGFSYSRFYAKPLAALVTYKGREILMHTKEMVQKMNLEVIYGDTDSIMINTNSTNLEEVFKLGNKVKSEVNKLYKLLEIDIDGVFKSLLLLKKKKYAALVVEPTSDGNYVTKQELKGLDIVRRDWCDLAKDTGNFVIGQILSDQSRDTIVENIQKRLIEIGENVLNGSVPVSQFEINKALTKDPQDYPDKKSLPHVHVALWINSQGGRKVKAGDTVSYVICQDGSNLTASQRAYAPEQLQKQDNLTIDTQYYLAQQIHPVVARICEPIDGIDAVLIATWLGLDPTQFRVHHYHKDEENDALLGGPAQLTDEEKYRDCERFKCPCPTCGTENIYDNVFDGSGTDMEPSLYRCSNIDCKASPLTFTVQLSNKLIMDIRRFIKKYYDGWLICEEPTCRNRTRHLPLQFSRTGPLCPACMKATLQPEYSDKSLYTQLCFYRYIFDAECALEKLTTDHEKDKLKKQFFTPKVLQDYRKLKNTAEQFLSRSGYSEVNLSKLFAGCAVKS
The note with it: Murakami-Murofushi et al. 1992; cited from earlier work.

Each structure is given as a SMILES string.

As to `CCCCCCCCC=CCCCCCCCC(=O)OCC1COP(=O)(O)C1` (stereo not shown) [2 ccPA (18:1), oleoyl 2-carba-cPA], in assay [1], the “level of myelin (Black Gold staining) versus control mouse” value was “the same results as in the case of cPA (16:0) and 2 ccPA (16:1) were obtained”.

In the case of `CCCCCC/C=C\CCCCCCCC(=O)OCC1COP(=O)(O)C1` (stereo not shown) [2 ccPA, palmitoleoyl 2-carba-cPA], in assay [2], the “demyelination level in corpus callosum (Black Gold II staining)” value is on record as “demyelination is suppressed”. Moreover, the “level of myelin (Black Gold staining) versus control mouse” value in assay [1] is “higher than the level of myelin in a control mouse”. For the same compound, the “motor function impairment (rotarod)” value in assay [3] is “motor function impairment is improved”. Moreover, the “nerve inflammation (gene expression by Q-PCR)” value in assay [4] is “nerve inflammation is suppressed”.

For `CCCCCC[C@@H]1C[C@@H]1CCCCCCCC(=O)OC[C@@H]1COP(=O)([O-])O1.[Na+]` [PHYLPA], in the assay on cultured animal cells, the “proliferation of cultured animal cells” value is “suppressing proliferation of cultured animal cells”. Moreover, on DNA polymerase α, the “activity of DNA polymerase α” value is listed as “suppressing the activity of DNA polymerase α”.
